Values of other authors, collected in patent publication US4883862A, “Mercaptosuccinyl glycyl-glycyl-glycine a complex thereof with Tc-99m, and methods of making the same” (Albert Einstein College of Medicine - of Yeshiva University, priority 1988, dated 1989).

[1] = 3 hrs after intravenous administration of 500 uCi

radiation dose to a normal kidney [1]: 47 mrad
radiation dose to the bladder wall [1]: 1.7 rad
renal absorbed dose (patients with impaired renal function): ≥ 3 rad
SMILES: O=C(O)CNC(=O)c1ccccc1[131I] [I-131 OIH, o-[^131 I]iodohippurate]
